Patent publication US20180237424A1, “FGFR3 ANTAGONISTS” (INSERM (INSTITUT NATIONAL DE LA SANTE ET DE LA RECHERCHE …, priority 2015, published 2018)
One block for each compound: values may come before it.

What was measured:
FGFR3-K650E = biological target: T1, FGFR3-K650E (Homo sapiens, UniProt P22607, K650E); assay: in cellulo FGFR3 phosphorylation in HEK 293 VNR cells transfected with FGFR3-K650E (immunoprecipitation, western blot); format: cell-based
T1 construct: expressed in transfected cells; host or cells: HEK 293 VNR cells

FGFR3 WT = FGFR3 WT (Homo sapiens, UniProt P22607); assay: in vitro inhibition of FGFR3 (WT); format: biochemical
FGFR3 WT, sequence (P22607 23-806): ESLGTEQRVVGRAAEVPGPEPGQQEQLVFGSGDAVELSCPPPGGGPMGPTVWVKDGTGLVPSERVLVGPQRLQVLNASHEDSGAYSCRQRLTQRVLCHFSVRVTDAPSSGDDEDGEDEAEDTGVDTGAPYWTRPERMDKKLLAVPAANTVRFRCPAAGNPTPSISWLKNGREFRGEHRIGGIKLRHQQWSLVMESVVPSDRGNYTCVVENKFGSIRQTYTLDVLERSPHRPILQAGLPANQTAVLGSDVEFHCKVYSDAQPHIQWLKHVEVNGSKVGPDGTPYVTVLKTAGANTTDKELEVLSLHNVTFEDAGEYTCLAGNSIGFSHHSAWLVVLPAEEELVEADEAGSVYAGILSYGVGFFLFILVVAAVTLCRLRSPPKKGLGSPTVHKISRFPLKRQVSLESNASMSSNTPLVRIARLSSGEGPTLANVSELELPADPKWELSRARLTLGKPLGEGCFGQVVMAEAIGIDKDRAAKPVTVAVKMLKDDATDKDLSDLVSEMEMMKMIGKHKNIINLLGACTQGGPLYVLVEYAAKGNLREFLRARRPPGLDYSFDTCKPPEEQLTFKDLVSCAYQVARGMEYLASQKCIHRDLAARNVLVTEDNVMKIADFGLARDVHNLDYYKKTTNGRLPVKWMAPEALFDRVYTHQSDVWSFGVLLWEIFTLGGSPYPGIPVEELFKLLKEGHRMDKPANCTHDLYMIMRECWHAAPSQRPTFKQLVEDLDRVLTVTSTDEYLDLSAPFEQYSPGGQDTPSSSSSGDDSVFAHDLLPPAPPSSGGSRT

T1 sequence (P22607 23-806 K650E): as the sequence (P22607 23-806) above, with K628E counted along it

SMILES: COC(=O)c1c(NC(C)=O)c(-c2noc(-c3ccc(Br)cc3)n2)nn1-c1cccc(OC)c1 [Cpd 24, Methyl 4-acetamido-3-(5-(4-bromophenyl)-1,2,4-oxadiazol-3-yl)-1-(3-methoxyphenyl)-1H-pyrazole-5-carboxylate]
IC50 (FGFR3-K650E): 0.15 µM
melting point: 224 °C

SMILES: COC(=O)c1c(NC(C)=O)c(-c2noc(-c3ccc(N(C)C)cc3)n2)nn1-c1cccc(OC)c1 [Cpd 27, Methyl 4-acetamido-3-(5-(4-(dimethylamino)phenyl)-1,2,4-oxadiazol-3-yl)-1-(3-methoxyphenyl)-1H-pyrazole-5-carboxylate]
melting point: 196 °C

SMILES: COC(=O)c1c(NC(C)=O)c(-c2noc(-c3ccccc3)n2)nn1-c1cccc(OC)c1 [Cpd 134, Methyl 4-acetamido-1-(3-methoxyphenyl)-3-(5-phenyl-1,2,4-oxadiazol-3-yl)-1H-pyrazole-5-carboxylate]
melting point: 186 to 188 °C

Results, then the compound that gave them:

inhibition at 0.5 µM (FGFR3-K650E; HEK293, @ 500 nM, K650E): 0%
SMILES: COC(=O)c1c(NC(C)=O)c(-c2noc(-c3ccc([N+](=O)[O-])cc3)n2)nn1-c1cccc(OC)c1 [Cpd 25]

IC50 (FGFR3 WT; no qualifier printed (column % in vitro inhibition)): 2 µM
SMILES: COC(=O)c1c(NC(C)=O)c(-c2noc(-c3ccc([N+](=O)[O-])cc3)n2)nn1-c1cccc(-c2cn(Cc3ccccc3)nn2)c1 [Cpd 64]

inhibition at 10 µM (FGFR3 WT): 21%
inhibition at 50 µM (FGFR3 WT): 97%
SMILES: CC(=O)Nc1c(-c2noc(-c3ccc([N+](=O)[O-])cc3)n2)nn(-c2cccc(-c3cn(Cc4ccccc4)nn3)c2)c1C(=O)NCc1ccccc1 [Cpd 79]

melting point: 248 °C
SMILES: COC(=O)c1c(NC(C)=O)c(-c2noc(-c3ccc([N+](=O)[O-])cc3)n2)nn1-c1cccc(OC)c1 [Example 2, Methyl 4-acetamido-1-(3-methoxyphenyl)-3-(5-(4-nitrophenyl)-1,2,4-oxadiazol-3-yl)-1H-pyrazole-5-carboxylate]
